Test results as given in patent publication US20130096119A1, “Isoquinolin-3-Ylurea Derivatives” (priority 2010, published 2013).
Values after ≈ are worked out from the molar mass of the structure shown.

Test system: S. pneumoniae ATCC 49619
Assay: Minimal inhibitory concentration (MIC) by microdilution method (CLSI M7-A7)
Assay type: cell-based, Streptococcus pneumoniae
Conditions: Streptococcus pneumoniae, ATCC49619, cation-adjusted Mueller-Hinton Broth supplemented with 3% (v/v) lysed horse blood
In short: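 Broth microdilution per CLSI M7-A7 in cation-adjusted Mueller-Hinton broth, supplemented with 3% (v/v) lysed horse blood for S. pneumoniae; MIC reported in mg/l.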

Point of comparison: `CCNC(=O)Nc1cc2c(F)ccc(Cc3ccccc3)c2cn1` [Example 46, 1-(8-benzyl-5-fluoro-isoquinolin-3-yl)-3-ethyl-urea], MIC 1 µg/mL (≈ 3.09 µM). Against it:
- CCNC(=O)Nc1cc2cc(NCc3ccccc3)cc(C)c2cn1 [Example 58, 1-(6-benzylamino-8-methyl-isoquinolin-3-yl)-3-ethyl-urea] — 8-fold higher, 8 µg/mL (≈ 23.9 µM)
- CCNC(=O)Nc1cc2cc(-c3ccc4c(c3)CCO4)cc(C)c2cn1 [Example 83, 1-[6-(2,3-dihydro-benzofuran-5-yl)-8-methyl-isoquinolin-3-yl]-3-ethyl-urea] — the same, 1 µg/mL (≈ 2.88 µM)
- CCNC(=O)Nc1cc2cccc(NC(=O)c3cnn[nH]3)c2cn1.Cl [Example 183, 3H-[1,2,3]triazole-4-carboxylic acid [3-(3-ethyl-ureido)-isoquinolin-8-yl]-amide hydrochloride] — 4-fold higher, 4 µg/mL
- CCNC(=O)Nc1cc2cccc(Nc3cccc(OC)c3)c2cn1 [Example 168, 1-ethyl-3-[8-(3-methoxy-phenylamino)-isoquinolin-3-yl]-urea] — 2-fold lower, 0.5 µg/mL (≈ 1.49 µM)
- CCNC(=O)Nc1cc2cccc(Nc3ccc(CC(=O)N(C)C)cc3)c2cn1.Cl [Example 206, 2-{4-[3-(3-ethyl-ureido)-isoquinolin-8-ylamino]phenyl}-N,N-dimethyl-acetamide hydrochloride] — 4-fold higher, 4 µg/mL
- CCNC(=O)Nc1cc2c(-c3cccc4cnccc34)ccc(C)c2cn1 [Example 67, 1-ethyl-3-(8-methyl-[5,5′]biisoquinolinyl-3-yl)-urea] — 16-fold higher, 16 µg/mL (≈ 44.9 µM)
- CCNC(=O)Nc1cc2cccc(Nc3cc(C)ccn3)c2cn1.Cl [Example 162, 1-ethyl-3-[8-(4-methyl-pyridin-2-ylamino)-isoquinolin-3-yl]-urea hydrochloride] — 2-fold higher, 2 µg/mL
- CCNC(=O)Nc1cc2cc(-c3cn[nH]c3)cc(C)c2cn1 [Example 28, 1-ethyl-3-[8-methyl-6-(1H-pyrazol-4-yl)-isoquinolin-3-yl]-urea] — 2-fold higher, 2 µg/mL (≈ 6.77 µM)
- CCNC(=O)Nc1cc2cccc(CNc3ncccn3)c2cn1 [Example 304, 1-ethyl-3-[8-(pyrimidin-2-ylaminomethyl)-isoquinolin-3-yl]-urea] — 4-fold higher, 4 µg/mL (≈ 12.4 µM)
- CCNC(=O)Nc1cc2c(-c3cccc(NC(C)=O)c3)ccc(C)c2cn1 [Example 4, N-{3-[3-(3-ethyl-ureido)-8-methyl-isoquinolin-5-yl]-phenyl}-acetamide] — 8-fold higher, 8 µg/mL (≈ 22.1 µM)
- CCNC(=O)Nc1cc2cccc(Nc3ccc(CC(=O)NC)cc3)c2cn1.Cl [Example 207, 2-{4-[3-(3-ethyl-ureido)-isoquinolin-8-ylamino]phenyl}-N-methyl-acetamide hydrochloride] — 2-fold higher, 2 µg/mL
- CCNC(=O)Nc1cc2cc(-c3cncnc3)cc(C)c2cn1 [Example 75, 1-ethyl-3-(8-methyl-6-pyrimidin-5-yl-isoquinolin-3-yl)-urea] — 4-fold higher, 4 µg/mL (≈ 13 µM)
- CCNC(=O)Nc1cc2c(-c3ccc(NC(=O)OC)cc3)ccc(C)c2cn1 [Example 65, {4-[3-(3-ethyl-ureido)-8-methyl-isoquinolin-5-yl]-phenyl}-carbamic acid methyl ester] — 2-fold higher, 2 µg/mL (≈ 5.28 µM)
- CCNC(=O)Nc1cc2cc(-c3ccc(CC#N)cc3)cc(C)c2cn1 [Example 92, 1-[6-(4-(cyanomethyl)-phenyl)-8-methyl-isoquinolin-3-yl]-3-ethyl-urea] — 4-fold lower, 0.25 µg/mL (≈ 0.726 µM)
- CCNC(=O)Nc1cc2c(F)c(-c3cccc(NC(C)=O)c3)cc(Nc3cccnc3)c2cn1 [Example 234, N-{3-[3-(3-ethyl-ureido)-5-fluoro-8-(pyridin-3-ylamino)-isoquinolin-6-yl]phenyl}-acetamide] — 4-fold lower, 0.25 µg/mL (≈ 0.545 µM)
- CCNC(=O)Nc1cc2c(-c3ccnc(N)c3)ccc(C)c2cn1 [Example 45, 1-[5-(2-amino-pyridin-4-yl)-8-methyl-isoquinolin-3-yl]-3-ethyl-urea] — 2-fold higher, 2 µg/mL (≈ 6.22 µM)
- CCNC(=O)Nc1cc2c(-c3ccc(S(N)(=O)=O)cc3)ccc(C)c2cn1 [Example 35, 4-[3-(3-ethyl-ureido)-8-methyl-isoquinolin-5-yl]-benzenesulfonamide] — 2-fold lower, 0.5 µg/mL (≈ 1.3 µM)
- CCNC(=O)Nc1cc2c(-c3c[nH]cn3)ccc(Cl)c2cn1 [Example 288, 1-[8-chloro-5-(1H-imidazol-4-yl)-isoquinolin-3-yl]-3-ethyl-urea] — 2-fold higher, 2 µg/mL (≈ 6.33 µM)
- CCNC(=O)Nc1cc2cc(N)cc(C)c2cn1 [Example 54, 1-(6-amino-8-methyl-isoquinolin-3-yl)-3-ethyl-urea] — 16-fold higher, 16 µg/mL (≈ 65.5 µM)
- CCNC(=O)Nc1cc2cccc(Nc3ccc(C(=O)OC)cn3)c2cn1.Cl [Example 165, 6-[3-(3-ethyl-ureido)-isoquinolin-8-ylamino]-nicotinic acid methyl ester hydrochloride] — 4-fold higher, 4 µg/mL
- CCNC(=O)Nc1cc2c(-c3ccc(CO)cc3)ccc(Nc3cccc(C(=O)NC)c3)c2cn1 [Example 250, 3-[3-(3-ethyl-ureido)-5-(4-hydroxymethyl-phenyl)-isoquinolin-8-ylamino]-N-methyl-benzamide] — the same, 1 µg/mL (≈ 2.13 µM)
- CCNC(=O)Nc1cc2cc(NCC(C)C)cc(C)c2cn1.Cl [Example 136, 1-ethyl-3-(6-isobutylamino-8-methyl-isoquinolin-3-yl)-urea hydrochloride] — 16-fold higher, 16 µg/mL
- CCNC(=O)Nc1cc2c(-c3ccc(CO)cc3)ccc(C)c2cn1 [Example 34, 1-ethyl-3-[5-(4-hydroxymethyl-phenyl)-8-methyl-isoquinolin-3-yl]-urea] — 2-fold higher, 2 µg/mL (≈ 5.96 µM)
- CCNC(=O)Nc1cc2cc(-c3ccncc3Cl)cc(C)c2cn1 [Example 98, 1-[6-(3-chloro-pyridin-4-yl)-8-methyl-isoquinolin-3-yl]-3-ethyl-urea] — 4-fold higher, 4 µg/mL (≈ 11.7 µM)
- CCNC(=O)Nc1cc2cccc(Nc3cccnc3OC)c2cn1.Cl [Example 291, 1-ethyl-3-[8-(2-methoxy-pyridin-3-ylamino)-isoquinolin-3-yl]-urea hydrochloride] — 4-fold higher, 4 µg/mL
- CCNC(=O)Nc1cc2c(-c3ccc(CO)cc3)ccc(Nc3cccnc3)c2cn1 [Example 226, 1-ethyl-3-[5-(4-hydroxymethyl-phenyl)-8-(pyridin-3-ylamino)-isoquinolin-3-yl]-urea] — the same, 1 µg/mL (≈ 2.42 µM)
- CCNC(=O)Nc1cc2cc(-c3ccccc3NC(C)=O)cc(C)c2cn1 [Example 86, N-{2-[3-(3-ethyl-ureido)-8-methyl-isoquinolin-6-yl]-phenyl}-acetamide] — 16-fold higher, 16 µg/mL (≈ 44.1 µM)
- CCNC(=O)Nc1cc2cc(-c3ccoc3)cc(C)c2cn1 [Example 14, 1-ethyl-3-(6-furan-3-yl-8-methyl-isoquinolin-3-yl)-urea] — 4-fold higher, 4 µg/mL (≈ 13.5 µM)
- CCNC(=O)Nc1cc2cccc(Nc3cccc(S(N)(=O)=O)c3)c2cn1 [Example 171, 3-[3-(3-ethyl-ureido)-isoquinolin-8-ylamino]-benzenesulfonamide] — 2-fold higher, 2 µg/mL (≈ 5.19 µM)
- CCNC(=O)Nc1cc2cccc(COc3ccc(C)cn3)c2cn1.Cl [Example 257, 1-ethyl-3-[8-(5-methyl-pyridin-2-yloxymethyl)-isoquinolin-3-yl]-urea hydrochloride] — 8-fold higher, 8 µg/mL
- CCNC(=O)Nc1cc2cccc(CNc3cc(C)nn3C)c2cn1 [Example 191, 1-{8-[(2,5-dimethyl-2H-pyrazol-3-ylamino)-methyl]-isoquinolin-3-yl}-3-ethyl-urea] — 8-fold higher, 8 µg/mL (≈ 23.6 µM)
- CCNC(=O)Nc1cc2cc(NCc3cccc(OC)c3)cc(C)c2cn1.Cl [Example 197, 1-ethyl-3-[6-(3-methoxy-benzylamino)-8-methyl-isoquinolin-3-yl]-urea hydrochloride] — 8-fold higher, 8 µg/mL

Same assay, conditions: cation-adjusted Mueller-Hinton Broth supplemented with 3% (v/v) lysed horse blood

“1-ethyl-3-[8-(5-hydroxymethyl-imidazol-1-ylmethyl)-isoquinolin-3-yl]-urea and 1-ethyl-3-[8-(4-hydroxymethyl-imidazol-1-ylmethyl)-isoquinolin-3-yl]-urea [Example 293]” was tested, and the “MIC for S. pneumoniae ATCC 49619” value was 4 µg/mL.
